Consider 7 test systems from the supplement of paper PMC6045584.

Compound in one assay: CCN(CC)CCNC(=O)c1c(C)[nH]c(/C=C2\C(=O)Nc3ccc(F)cc32)c1C [SUNITINIB]
As to the kind of experiment: surviving fraction relative to DMSO-only wells; higher = less growth inhibition. The note with it: exposure time: 5 days. The method, boiled down:
(§1)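 Tumour cell lines were seeded in log phase at 250–500 cells per well into 384-well plates. Starting 24 hours later, inhibitors were present continuously for five days at 0.5, 1, 5, 10, 50, 100, 500 and 1000 nM. Surviving fraction, from CellTiter-Glo luminescence, is normalised to the median of DMSO-only wells. Three screens per line were required, with replicate Pearson r >0.7 and median Z' >0.3 for a line to be kept.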

Compound in assay [1]: O=C(NOCC1CC1)c1ccc(F)c(F)c1Nc1ccc(I)cc1Cl
The description is as above. The conditions noted are these: exposure time: 5 days. The method, boiled down: as §1

± gives the standard deviation of the averaged measurements.

C33A CERVIX: the surviving fraction in the assay with SUNITINIB (0.5 nM) turned out to be 1.1 ± 0.13; with SUNITINIB (5 nM) it was 1.18 ± 0.12; with SUNITINIB (50 nM), 1.12 ± 0.049; with SUNITINIB (100 nM), 1.22 ± 0.1; in the assay with SUNITINIB (500 nM), 0.647 ± 0.081; with SUNITINIB (1000 nM) it was 0.339 ± 0.019. Moreover, the surviving fraction was 0.68 ± 0.058 in assay [1] (0.5 nM); 0.7503 ± 0.0031 in assay [1] (1 nM); 0.868 ± 0.12 in assay [1] (5 nM); 0.841 ± 0.071 in assay [1] (10 nM); 0.736 ± 0.085 in assay [1] (50 nM); 0.686 ± 0.047 in assay [1] (100 nM). Moreover, the surviving fraction is 0.477 ± 0.066 in assay [1] (500 nM) and 0.461 ± 0.032 in assay [1] (1000 nM).

In the case of CAL72 BONE, the surviving fraction with SUNITINIB (0.5 nM) worked out at 0.977 ± 0.016; in the assay with SUNITINIB (1 nM) it was 0.995 ± 0.028; with SUNITINIB (100 nM), 1.058 ± 0.0023; with SUNITINIB (500 nM), 0.92 ± 0.0072; with SUNITINIB (1000 nM), 0.663 ± 0.044; in assay [1] (0.5 nM), 1.045 ± 0.0036. The surviving fraction worked out at 1.065 ± 0.0074 in assay [1] (1 nM); 1.07 ± 0.012 in assay [1] (5 nM); 1.09 ± 0.041 in assay [1] (10 nM); 1.051 ± 0.0061 in assay [1] (50 nM); 1.085 ± 0.0095 in assay [1] (100 nM); 1.07 ± 0.021 in assay [1] (500 nM). Also, the surviving fraction in assay [1] (1000 nM) is 1.056 ± 0.0038.

In the case of G292 BONE, the surviving fraction came to 0.903 ± 0.05 with SUNITINIB (0.5 nM); 0.947 ± 0.037 in the assay with SUNITINIB (1 nM); 0.938 ± 0.048 with SUNITINIB (5 nM); 0.904 ± 0.027 with SUNITINIB (10 nM); 0.909 ± 0.032 with SUNITINIB (50 nM); 0.887 ± 0.061 with SUNITINIB (100 nM). In addition, the surviving fraction with SUNITINIB (500 nM) was 0.553 ± 0.014; in the assay with SUNITINIB (1000 nM), 0.306 ± 0.0087; in assay [1] (0.5 nM) it was 0.986 ± 0.059; in assay [1] (1 nM), 0.942 ± 0.064; in assay [1] (5 nM), 0.985 ± 0.052; in assay [1] (10 nM), 0.986 ± 0.035. Moreover, the surviving fraction amounted to 0.967 ± 0.041 in assay [1] (50 nM), 0.959 ± 0.058 in assay [1] (100 nM), 0.897 ± 0.047 in assay [1] (500 nM) and 0.924 ± 0.0059 in assay [1] (1000 nM).

As for HCC1395 BREAST, the surviving fraction with SUNITINIB (0.5 nM) is 0.977 ± 0.037; with SUNITINIB (1 nM), 0.829 ± 0.066; in the assay with SUNITINIB (5 nM), 0.9396 ± 0.0017; with SUNITINIB (10 nM) it was 0.969 ± 0.094; in the assay with SUNITINIB (50 nM) it was 1.09 ± 0.11; in the assay with SUNITINIB (100 nM) it was 1.06 ± 0.17. Further, the surviving fraction with SUNITINIB (500 nM) amounted to 0.971 ± 0.046; in the assay with SUNITINIB (1000 nM) it was 1.01 ± 0.12; in assay [1] (0.5 nM), 0.997 ± 0.2; in assay [1] (1 nM), 0.963 ± 0.14; in assay [1] (5 nM), 0.951 ± 0.17; in assay [1] (10 nM), 0.958 ± 0.2. In addition, the surviving fraction was determined as 0.838 ± 0.14 in assay [1] (50 nM), 0.96 ± 0.052 in assay [1] (100 nM), 0.86 ± 0.075 in assay [1] (500 nM) and 0.979 ± 0.042 in assay [1] (1000 nM).

Regarding HUO3N1 BONE, the surviving fraction in the assay with SUNITINIB (0.5 nM) turned out to be 0.907 ± 0.082; with SUNITINIB (1 nM), 0.88 ± 0.056; in the assay with SUNITINIB (5 nM), 0.8743 ± 0.0058; with SUNITINIB (10 nM), 0.82 ± 0.034; with SUNITINIB (50 nM), 0.817 ± 0.035; in the assay with SUNITINIB (100 nM), 0.801 ± 0.036. Moreover, the surviving fraction with SUNITINIB (500 nM) stood at 0.64 ± 0.0053; with SUNITINIB (1000 nM), 0.379 ± 0.016; in assay [1] (0.5 nM), 1.04 ± 0.051; in assay [1] (1 nM), 1.01 ± 0.056; in assay [1] (5 nM), 1.05 ± 0.03; in assay [1] (10 nM), 1.04 ± 0.029. In addition, the surviving fraction stood at 1.03 ± 0.037 in assay [1] (50 nM), 1.01 ± 0.011 in assay [1] (100 nM), 0.935 ± 0.017 in assay [1] (500 nM) and 1 ± 0.029 in assay [1] (1000 nM).

Take LNCAP PROSTATE: the surviving fraction with SUNITINIB (0.5 nM) worked out at 1.12 ± 0.06; with SUNITINIB (1 nM), 1.19 ± 0.081; with SUNITINIB (10 nM) it was 1.01 ± 0.12; with SUNITINIB (50 nM) it was 1.08 ± 0.093; with SUNITINIB (100 nM) it was 1.14 ± 0.037; with SUNITINIB (500 nM) it was 0.854 ± 0.11. For the same test system, the surviving fraction in the assay with SUNITINIB (1000 nM) came out at 0.45 ± 0.033; in assay [1] (0.5 nM), 0.795 ± 0.11; in assay [1] (1 nM) it was 0.855 ± 0.081; in assay [1] (5 nM) it was 0.828 ± 0.11; in assay [1] (10 nM) it was 0.99 ± 0.11; in assay [1] (50 nM), 0.854 ± 0.17. In addition, the surviving fraction amounted to 0.921 ± 0.094 in assay [1] (100 nM), 0.945 ± 0.024 in assay [1] (500 nM) and 0.884 ± 0.18 in assay [1] (1000 nM).

SCC003 HEADNECK: the surviving fraction came out at 0.834 ± 0.071 in the assay with SUNITINIB (0.5 nM); 0.807 ± 0.064 with SUNITINIB (1 nM); 0.851 ± 0.036 with SUNITINIB (5 nM); 0.784 ± 0.058 with SUNITINIB (10 nM); 0.97 ± 0.07 with SUNITINIB (50 nM); 0.919 ± 0.017 in the assay with SUNITINIB (100 nM). The surviving fraction was determined as 0.495 ± 0.02 with SUNITINIB (500 nM); 0.265 ± 0.034 with SUNITINIB (1000 nM); 0.843 ± 0.1 in assay [1] (0.5 nM); 0.826 ± 0.05 in assay [1] (1 nM); 0.942 ± 0.11 in assay [1] (5 nM); 0.907 ± 0.086 in assay [1] (10 nM). Further, the surviving fraction in assay [1] (50 nM) amounted to 0.917 ± 0.079; in assay [1] (100 nM), 0.924 ± 0.056; in assay [1] (500 nM), 0.689 ± 0.037; in assay [1] (1000 nM) it was 0.648 ± 0.033.
